Results from patent publication US20160075689A1, “POLYMERASE, ENDONUCLEASE, AND HELICASE INHIBITORS AND METHODS OF USING THEREOF” (THE BOARD OF TRUSTEES OF THE UNIVERSITY OF ARKANSAS, priority 2013, published 2016).
Several values for one entry are separate records, joined by “and”; a condition that tells them apart may be missing. Identical values can stand only once.

Experiments:
[1] = target: T1, EndoG (Homo sapiens, UniProt Q14249); experiment: High-throughput EndoG screening assay; format: biochemical
T1 sequence (Q14249 49-297): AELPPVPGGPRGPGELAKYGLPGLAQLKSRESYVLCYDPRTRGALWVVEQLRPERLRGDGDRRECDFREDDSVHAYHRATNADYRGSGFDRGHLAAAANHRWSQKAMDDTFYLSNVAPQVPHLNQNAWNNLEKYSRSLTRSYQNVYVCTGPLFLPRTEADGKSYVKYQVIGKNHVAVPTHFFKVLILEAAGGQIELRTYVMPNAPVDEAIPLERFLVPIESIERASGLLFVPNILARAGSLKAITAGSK
Protocol: A reaction mixture was prepared in each well of a white 96-well plate (Costar, Corning, N.Y.) as follows: 0.25 μM Cy5.5-labeled oligonucleotide (described in US provisional patent filed Oct. 19, 2012, Ser. No. 61/716,097) 0.3 mM MgCl2, 10 mM Tris-HCl, pH 7.4, 1 μl DMSO containing 5 or 50 ng of test compound, and nuclease-free water for a total reaction volume of 100 μl. The background (negative control) and uninhibited EndoG samples were measured using DMSO only, or DMSO containing recombinant EndoG (4 μg/ml), respectively. After addition of EndoG, fluorescence intensity was kinetically measured on a Bio-Tek Synergy 4.0 plate reader at 37° C. and mean velocity (mRFU/min) within 20 min was automatically calculated by the plate reader. The background was subtracted prior to the calculation of EndoG activity (%). The percent of EndoG activity was calculated from the mean velocity of a compound divided by the mean velocity of DMSO with recombinant EndoG, and the obtained value multiplied by 100.

[2] = tested on: RNase A; experiment: Ribonuclease A activity in NRK-52E cell extract; format: biochemical; settings: 0.1 μM and 10 μM
Protocol: (§1) As a follow up to Example 8, the effects of the EndoG inhibitors PNR-3-80 and PNR-3-82, at 0.1 μM and 10 μM each, on the activities of four other enzymes including RNase A, protease, LDH, and SOD in NRK-52E cell extract were examined. NRK-52E cells were grown to ˜80% confluence in […]. The medium was aspirated and the cells were rinsed with ice cold 1×PBS, pH 7.4. The cells were lysed in 50 mM Tris-HCl, pH 7.4, 150 mM NaCl, 1% Triton X-100 for 10 min on ice and then briefly sonicated. Cell debris was removed by centrifugation at 13,000×g for 10 min at 4° C. The supernatant was collected and stored at −80° C. until use. LDH, Protease, Superoxide dismutase (SOD), and Ribonuclease A (RNase A) activities were measured by using CytoTox 96® Non-Radioactive Cytotoxicity Assay kit (Promega, Madison, Wis.), Protease Fluorescent Detection kit (Sigma-Aldrich, Saint Louis, Mo.), SOD determination kit (Sigma-Aldrich, Saint Louis, Mo.), and Ribonuclease A Detection kit (Sigma-Aldrich, Saint Louis, Mo.), respectively, according to the manufacturer's instructions.

[3] = tested on: protease; experiment: Protease activity in NRK-52E cell extract; format: biochemical; settings: 0.1 μM and 10 μM
Protocol: as §1

[4] = tested on: EndoG-expressing PC3 cells; experiment: Cytoprotection against Docetaxel-induced cell death, LDH release and TUNEL assays; format: cell-based, human; settings: Docetaxel 80 μM, inhibitor 50 μM
Protocol: Docetaxel is an anti-cancer drug used to treat prostate cancer. Human invasive prostate cancer PC3 cells are known to be resistant to anticancer drugs. […] The resulting EndoG-expressing PC3 cells were exposed with Docetaxel (80 μM) in the absence or presence of the inhibitors, PNR-3-80 or PNR-3-82 (50 μM each). The cell death was measured by using two methods, LDH release assay and TUNEL assay. […]

[5] = target: T1, EndoG; experiment: Plasmid incision assay; format: biochemical; settings: agarose gel, FIG. 9
Protocol: A reaction mixture was prepared containing 0.5 μg pECFP plasmid DNA, 2 mM CaCl2, 5 mM MgCl2, 10 mM Tris-HCl, pH 7.4, 0.5 mM dithiothreitol. The test compound [50 ng in DMSO (1 μl)] was added. Recombinant EndoG was then added to the final concentration of 200 ng/ml and the reaction was incubated for 1 h at 37° C. The reaction was terminated by adding 2 μl of 10 mM Tris-HCl, pH 7.4, 1% SDS, 25 mM EDTA, 7.2 mM bromophenol blue. The samples were run in 1% agarose gel in Tris-acetate-EDTA buffer (40 mM Tris, 20 mM acetic acid, 1 mM EDTA, pH 8), at 7 V/cm for 35 min, and DNA was stained with ethidium bromide. An EagleEye scanning densitometer (Stratagene, La Jolla, Calif.) was utilized to quantify the relative amount of endonuclease-treated plasmid DNA present in a covalently-closed circular (supercoiled) DNA, open circular DNA, or linear DNA, or in a digested form.

[6] = target: NS3-4A (Hepatitis C virus genotype 1b, UniProt P26663); experiment: NS3 protease activity assay; format: biochemical, HCV; settings: 25 μM compound, 50 nM NS3-4A, 100 nM substrate
Protocol: The protease activity of NS3 was analyzed in the presence of 25 μM ITBA-3-79, ITBA-3-82 or ITBA-3-85 by using 50 nM NS3-4A and 100 nM substrate (Ac-Asp-Glu-Asp-EDANS-Glu-Glu-Abu-L-Lactoyl-Ser-Lys DABCYL-NH2). The emission spectra of EDANS and the absorption spectra of DABCYL overlap making the peptide internally quenched. Cleaving of the substrate by the protease results in an increase in fluorescence that can be measured (λex−355 nm; λem, −500 nm). Telapravir (10 μM) was used as a positive control.

[7] = tested on: LDH; experiment: LDH activity in NRK-52E cell extract; format: biochemical; settings: 0.1 μM and 10 μM
Protocol: as §1

[8] = target: T2, NS3 helicase (Hepatitis C virus genotype 1b, UniProt P26663); experiment: Gel-based helicase assay; format: biochemical, HCV; settings: standard helicase assay
T2 construct: analyze the helicase activity of NS3 helicase in the presence of the compounds; made in house
Protocol: Benchtop unwinding assays were performed to analyze the helicase activity of NS3 helicase in the presence of the compounds. The unwinding reaction was initiated by mixing the right (N53, compound, assay buffer) and left (radiolabeled substrate, ATP, assay buffer) reactions, which was then quenched. The ssDNA product formed over time is separated from dsDNA substrate by 20% native PAGE. The ratio of dsDNA substrate to ssDNA product is quantified using ImageQuant and the fraction of substrate unwound at each time-point is plotted as a function of time using Kaleidagraph software.

T2 sequence (P26663 1027-1657): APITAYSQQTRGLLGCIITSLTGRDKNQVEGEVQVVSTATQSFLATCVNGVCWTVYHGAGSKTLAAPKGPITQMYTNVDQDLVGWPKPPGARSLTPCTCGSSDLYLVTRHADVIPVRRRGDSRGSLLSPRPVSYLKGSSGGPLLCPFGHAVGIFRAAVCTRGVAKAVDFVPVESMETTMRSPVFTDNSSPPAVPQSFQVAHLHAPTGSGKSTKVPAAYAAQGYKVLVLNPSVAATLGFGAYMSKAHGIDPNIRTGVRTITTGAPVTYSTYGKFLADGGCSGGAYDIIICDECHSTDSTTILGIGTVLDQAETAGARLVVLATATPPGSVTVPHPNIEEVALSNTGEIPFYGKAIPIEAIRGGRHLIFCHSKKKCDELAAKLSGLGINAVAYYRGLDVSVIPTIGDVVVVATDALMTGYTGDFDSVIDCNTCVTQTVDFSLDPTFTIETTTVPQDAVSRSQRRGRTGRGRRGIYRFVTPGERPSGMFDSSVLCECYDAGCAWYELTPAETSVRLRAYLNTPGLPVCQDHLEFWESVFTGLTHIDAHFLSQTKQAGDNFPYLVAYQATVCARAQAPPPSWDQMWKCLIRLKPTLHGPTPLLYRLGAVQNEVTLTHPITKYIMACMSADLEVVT
NS3-4A, sequence (P26663 1027-1657): as above
NS3-4A, sequence (P26663 1658-1711): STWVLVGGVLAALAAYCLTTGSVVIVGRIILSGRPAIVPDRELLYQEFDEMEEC

## COc1ccc2c(c1)c(C=C1C(=O)NC(=S)NC1=O)cn2C(=O)c1ccc2ccccc2c1 [PNR-3-82]
[1]; 20 min, compound 1 μM, read-out: % EndoG activity in the presence of the compound
  remaining activity at 1 µM: 21.8%
[1]; IC50 against EndoG, EndoG screening assay
  IC50: 613 nM and 610 nM
[2]
  RNase A activity: none of the two tested compounds had any inhibiting activity
[3]
  protease activity: none of the two tested compounds had any inhibiting activity
[4]
  cytoprotection against Docetaxel-induced cell death: cytoprotective
[5]
  protection of supercoiled plasmid DNA from degradation by EndoG: significantly protected the plasmid DNA from degradation
[6]
  NS3 protease activity: do not block protease activity
[7]
  LDH activity: none of the two tested compounds had any inhibiting activity
[8]
  NS3 helicase activity, gel electrophoresis: confirmed the inhibition
